This note sets out measurements from patent US20130074216A1, “TOMATO CATECHOL-O-METHYLTRANSFERASE SEQUENCES AND METHODS OF USE” (UNIVERSITY OF FLORIDA RESEARCH FOUNDATION, INC., priority 2011, published 2013).

One series has as its system SIOMT1. Nature of the series: Substrate specificity assay of purified recombinant SIOMT1 with [14C]-AdoMet. The series is classed as biochemical, Solanum lycopersicum. Particulars: 15 μM substrate, 30 min, 25°, products extracted with hexanes, scintillation counting. The method, then: FIG. 2 illustrates the chemical structure and relative activity of SIOMT1 on catechol and substrates with similar structure to catechol. Relative activity was determined by incubating purified SIOMT with excess amounts of [C^14]-AdoMet and […] of substrate. Products were extracted with hexanes and measured with a scintillation counter. Relative activity is expressed as a percentage of activity on catechol. 1=catechol; 2=guaiacol; 3=salicylic acid; 4=benzoic acid; 5=orcinol; 6=caffeic acid.
For substrate specificity assays, 5 μL purified enzyme was assayed at 25° in a 100 μL reaction containing 50 mM Tris-HCl, pH 7.5, 100 mM KCl, 2.8 mM BME, 15 μM substrate, 10 mM SAM, 0.4 mM [methyl-^14C] AdoMet (specific activity 50.4 mCi mmol^−1; Amersham). Substrates were diluted in 50% EtOH. Assays were done in triplicate, including boiled enzyme controls. After 30 min at 25° the reactions were stopped by adding equal volumes of hexanes. The methylated substrate was extracted on a vortex mixer for 15 sec and centrifuging at 13 200 g for 5 min. 50 μL of the organic layer was counted for 10 min in 3 ml Ready Gel Scintillation Fluid (Beckman Coulter, http://www.beckmancoulter.com). Counts for the boiled enzyme controls were subtracted from the sample counts, and activity for catechol was normalized to 100%. For the Km of catechol, procedures were the same as above, except for catechol concentrations. Concentrations used were: 0, 1, 5, 15, 25, and 50 μM.
To further test the specificity of SGN-U582403 (SIOMT1) for catechol, the activity of SIOMT1 on substrates with similar structure to catechol was measured. Purified protein was incubated with [^14C]-AdoMet and the following potential substrates: catechol, guaiacol, salicylic acid, benzoic acid, orcinol, or caffeic acid. Products were extracted with hexanes and measured with a scintillation counter.

In series [1] the test system is tomato fruit pericarp discs. Nature of the series: Catechol feeding of tomato fruit pericarp discs, guaiacol by GC/MS. Particulars: 10 μl of 1 M catechol per disc. The class given is cell-based, Solanum lycopersicum cv. Flora-Dade. The method, then: FIGS. 6A and 6B illustrate results of catechol feeding of tomato discs. Tomato fruit discs were made from the pericarp of Flora-Dade and SIOMT1OE ripe fruit and treated with water or catechol. Volatiles of the discs were collected after 5 h and analyzed using GC-MS. FIG. 6A illustrates the spectrum showing the guaiacol peak at 20.65 minutes. […] The table in FIG. 6B summarizes the differences in guaiacol production between Flora-Dade and SIOMT1OE.
Tomato discs were cut from pericarp tissue of ripe WT and SIOMT1 over-expressing fruit using a size 10 borer. A hundred discs were used for each sample treatment. Discs were placed in petri dishes and an X was cut in the top of each. 10 μl of either water or 1 M catechol dissolved in water was pipetted into each disc. Cover were place on petri dish and disc were left to incubate for 5 hr. Disc were then place in glass tube and volatiles were extracted as previously described. Guaiacol was quantified on GC/MS using a guaiacol standard curve.
Rather, low concentrations of catechol might limit the production of guaiacol in SIOMT1 plants. Thus, to further test this, catechol was fed to fruit pericarp discs of Flora-Dade (WT) and SIOMT1 over-expressing lines. Volatiles were collected after incubation for […]. Both WT and SIOMT1 discs produced increased guaiacol when fed catechol. […]

The nature of series [2]: Initial screen: catechol added to E. coli cultures expressing candidate OMT, guaiacol production measured. The series is classed as cell-based, Solanum lycopersicum cv. M82. Particulars: induced protein in E. coli cultures. The method, then:
Potential S. lycopersicum catechol OMT candidates were selected by identification of genes with homology to previously characterized catechol and caffeic acid OMTs (FIG. 1). Five candidate genes were selected, SGN-U582403, SGN-U565623, SGN-U319245, SGN-U575022, and SGN-U321686. Full length cDNAs were synthesized from S. lycopersicum cv. M82 ripe fruit RNA. Candidate genes were cloned into pET160 plasmids for expression in E. coli. Initial screens were performed by adding catechol directly to bacterial cultures expressing induced protein and measuring guaiacol production.

For `O=C(O)/C=C/c1ccc(O)c(O)c1` [caffeic acid], in the series on SIOMT1, the “activity of SIOMT1 on substrate relative to catechol” value was “slight activity”. As for `Cc1cc(O)cc(O)c1` [orcinol], the “activity of SIOMT1 on substrate relative to catechol” value in the series with SIOMT1 was “slight activity”. Turning to `Oc1ccccc1O` [catechol], the “activity of SIOMT1 on substrate relative to catechol” value in the series with SIOMT1 is “preferentially methylated”. Also, the “guaiacol produced by catechol-fed discs relative to the unfed control” value in series [1] (SIOMT1 over-expressing discs) is 52 times; in series [1] (WT (Flora-Dade) discs) it was 36 times.

B1: U582403: tomato catechol O-methyltransferase from S. lycopersicum, SEQ ID NO: 3 (protein)
chain: MGSTANIQLATQSEDEERNCTYAMQLLSSSVLPFVLHSTIQLDVFDILAKDKAATKLSALEIVSHMPNCKNPDAATMLDRMLYVLASYSLLDCSVVEEGNGVTERRYGLSRVGKFFVRDEDGASMGPLLALLQDKVFINSWFELKDAVLEGGVPFDRVHGVHAFEYPKLDPKFNDVFNQAMINHTTVVMKRILENYKGFENLKTLVDVGGGLGVNLKMITSKYPTIKGTNFDLPHVVQHAPSYPGVDHVGGDMFESVPQGDAIFMKWILHDWSDGHCLKLLKNCHKALPDNGKVIVVEANLPVKPDTDTTVVGVSQCDLIMMAQNPGGKERSEQEFRALASEAGFKGVNLICCVCNFWVMEFYK
modifications: S. lycopersicum
Regarding B1, the “conversion of catechol to guaiacol by candidate OMT” value in series [2] was “converted catechol to guaiacol”.
